Assay results: patent US12077503B2, “Substituted cyclic amides and their use as herbicides” (FMC CORPORATION, priority 2015, dated 2024)

Columns and labels:
Type in all cases: in vivo
Kochia (Kochia scoparia) [1] = assay: Test A preemergence; conditions: for Plant response rating, Kochia: 125 g ai/ha; for Kochia plant response rating (0 to 100 scale, 0 is no effect, 100 is complete control): 500 g ai/ha, visual injury approx. 10 d
How it was run: (§1)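 Visual injury, scored on a 0–100 scale relative to untreated controls, was recorded about 10 d after application. Treatments were a preemergence soil spray over planted seeds or a postemergence spray on plants at the one- to two-leaf stage, 2 to 10 cm tall, all in loam soil–sand blend in the greenhouse.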

[2] = tested on: barnyardgrass (Echinochloa crus-galli); assay: Test A preemergence; conditions: for Plant response rating, Barnyardgrass: 125 g ai/ha; for Barnyardgrass plant response rating (0 to 100 scale, 0 is no effect, 100 is complete control): 500 g ai/ha, visual injury approx. 10 d
How it was run: as §1

[3] = tested on: giant foxtail (Setaria faberii); assay: Test A preemergence; conditions: for Plant response rating, Foxtail, Giant: 125 g ai/ha; for Foxtail, Giant plant response rating (0 to 100 scale, 0 is no effect, 100 is complete control): 500 g ai/ha, visual injury approx. 10 d
How it was run: as §1

[4] = tested on: pigweed (Amaranthus retroflexus); assay: Test A preemergence; conditions: for Plant response rating, Pigweed: 125 g ai/ha; for Pigweed plant response rating (0 to 100 scale, 0 is no effect, 100 is complete control): 500 g ai/ha, visual injury approx. 10 d
[5] = tested on: ragweed (common ragweed, Ambrosia elatior); assay: Test A preemergence; conditions: for Plant response rating, Ragweed: 125 g ai/ha; for Ragweed plant response rating (0 to 100 scale, 0 is no effect, 100 is complete control): 500 g ai/ha, visual injury approx. 10 d
How it was run: as §1

[6] = tested on: ryegrass, Italian (Italian ryegrass, Lolium multiflorum); assay: Test A preemergence; conditions: for Plant response rating, Ryegrass, Italian: 125 g ai/ha; for Ryegrass, Italian plant response rating (0 to 100 scale, 0 is no effect, 100 is complete control): 500 g ai/ha, visual injury approx. 10 d
How it was run: as §1

[7] = tested on: Galium (catchweed bedstraw, Galium aparine); assay: Test A postemergence; conditions: for Galium plant response rating: 125 g ai/ha, visual injury rating on 0 to 100 scale (0 no effect, 100 complete control), approx. 10 d; for Plant response rating, Galium: 500 g ai/ha
How it was run: as §1

Kochia (Kochia scoparia) [8] = assay: Test A postemergence; conditions: for Kochia plant response rating: 125 g ai/ha, visual injury rating on 0 to 100 scale (0 no effect, 100 complete control), approx. 10 d; for Plant response rating, Kochia: 500 g ai/ha
How it was run: as §1

[9] = tested on: barnyardgrass (Echinochloa crus-galli); assay: Test A postemergence; conditions: for Barnyardgrass plant response rating: 125 g ai/ha, visual injury rating on 0 to 100 scale (0 no effect, 100 complete control), approx. 10 d; for Plant response rating, Barnyardgrass: 500 g ai/ha
How it was run: as §1

[10] = tested on: blackgrass (Alopecurus myosuroides); assay: Test A postemergence; conditions: for Blackgrass plant response rating: 125 g ai/ha, visual injury rating on 0 to 100 scale (0 no effect, 100 complete control), approx. 10 d; for Plant response rating, Blackgrass: 500 g ai/ha
How it was run: as §1

corn (Zea mays) = assay: Test A postemergence; conditions: for Corn plant response rating: 125 g ai/ha, visual injury rating on 0 to 100 scale (0 no effect, 100 complete control), approx. 10 d; for Plant response rating, Corn: 500 g ai/ha
How it was run: as §1

[11] = tested on: giant foxtail (Setaria faberii); assay: Test A postemergence; conditions: for Foxtail, Giant plant response rating: 125 g ai/ha, visual injury rating on 0 to 100 scale (0 no effect, 100 complete control), approx. 10 d; for Plant response rating, Foxtail, Giant: 500 g ai/ha
How it was run: as §1

[12] = tested on: pigweed (Amaranthus retroflexus); assay: Test A postemergence; conditions: for Pigweed plant response rating: 125 g ai/ha, visual injury rating on 0 to 100 scale (0 no effect, 100 complete control), approx. 10 d; for Plant response rating, Pigweed: 500 g ai/ha
How it was run: as §1

[13] = tested on: ragweed (common ragweed, Ambrosia elatior); assay: Test A postemergence; conditions: for Ragweed plant response rating: 125 g ai/ha, visual injury rating on 0 to 100 scale (0 no effect, 100 complete control), approx. 10 d; for Plant response rating, Ragweed: 500 g ai/ha
How it was run: as §1

[14] = tested on: ryegrass, Italian (Italian ryegrass, Lolium multiflorum); assay: Test A postemergence; conditions: for Ryegrass, Italian plant response rating: 125 g ai/ha, visual injury rating on 0 to 100 scale (0 no effect, 100 complete control), approx. 10 d; for Plant response rating, Ryegrass, Italian: 500 g ai/ha
How it was run: as §1

[15] = tested on: wheat (Triticum aestivum); assay: Test A postemergence; conditions: for Wheat plant response rating: 125 g ai/ha, visual injury rating on 0 to 100 scale (0 no effect, 100 complete control), approx. 10 d; for Plant response rating, Wheat: 500 g ai/ha
How it was run: as §1

[16] = tested on: barnyardgrass (Echinochloa crus-galli); assay: Test B flooded paddy test; conditions: Flood, 0 to 100 scale where 0 is no effect and 100 is complete control, 13 to 15 d
How it was run: (§2)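 Response scored visually against untreated controls, 0 = no effect and 100 = complete control, 13–15 d after treatment in the greenhouse. Compounds added to paddy water held 3 cm above soil surface. Treatment given at 2-leaf stage.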

[17] = tested on: ducksalad (Heteranthera limosa); assay: Test B flooded paddy test; conditions: Flood, 0 to 100 scale where 0 is no effect and 100 is complete control, 13 to 15 d
How it was run: as §2

rice (Oryra sativa) = assay: Test B flooded paddy test; conditions: Flood, 0 to 100 scale where 0 is no effect and 100 is complete control, 13 to 15 d
How it was run: as §2

[18] = tested on: sedge, umbrella (small-flower umbrella sedge, Cyperus difformis); assay: Test B flooded paddy test; conditions: Flood, 0 to 100 scale where 0 is no effect and 100 is complete control, 13 to 15 d
How it was run: as §2

[19] = tested on: waterhemp (common waterhemp, Amaranthus rudis); assay: Test C preemergence; conditions: for Plant response rating, Waterhemp: scale 0 to 100, 0 no effect, 100 complete control
How it was run: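 Visual 0 (no effect) to 100 (complete control) ratings versus controls, taken 13–15 d after treatment in the greenhouse; dash means no result. Compounds in a surfactant-containing non-phytotoxic solvent blend were applied preemergence to seeds in loam-sand soil or postemergence to 1- to 4-leaf plants (2–18 cm) in peat-based medium.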

[20] = preemergence, 0 to 100 scale (0 no effect, 100 complete control)
[21] = postemergence, 0 to 100 scale, 0 no effect, 100 complete control
[22] = Preemergence, visual injury after approximately 10 d, 0 to 100 scale where 0 is no effect and 100 is complete control
[23] = Postemergence, 0 to 100 scale where 0 is no effect and 100 is complete control

O=C1NCC(c2cccc(OC(F)F)c2)C1C(=O)Nc1ccc(F)cc1F (stereo not shown) [Compound 421]
20: Plant response rating, Pigweed [4, 20] | Plant response rating, Kochia (Kochia (Kochia scoparia) [8]; [21]) | Blackgrass plant response rating ([10]; postemergence) | Ragweed plant response rating ([13]; postemergence) | Ryegrass, Italian plant response rating ([14]; postemergence)
90: Plant response rating, Barnyardgrass [2, 20] | Barnyardgrass plant response rating (0 to 100 scale, 0 is no effect, 100 is complete control) ([2]; Preemergence) | Plant response rating, Foxtail, Giant [3, 20] | Foxtail, Giant plant response rating (0 to 100 scale, 0 is no effect, 100 is complete control) ([3]; Preemergence) | Plant response rating, Barnyardgrass [9, 21] | Plant response rating, Foxtail, Giant [11, 21]
0: Plant response rating, Ryegrass, Italian [6, 20] | Kochia plant response rating (Kochia (Kochia scoparia) [8]; postemergence) | Corn plant response rating (corn (Zea mays); postemergence) | Pigweed plant response rating ([12]; postemergence) | Wheat plant response rating ([15]; postemergence) | Plant response rating, Sedge, Umbrella ([18]; 500 g ai/ha)
30: Plant response rating, Ragweed [5, 20] | Ryegrass, Italian plant response rating (0 to 100 scale, 0 is no effect, 100 is complete control) ([6]; Preemergence) | Plant response rating, Pigweed [12, 21] | Plant response rating, Ragweed [13, 21] | Plant response rating, Waterhemp ([19]; 62 g ai/ha)
100: Plant response rating, Ducksalad ([17]; 500 g ai/ha)
85: Plant response rating, Waterhemp ([19]; 250 g ai/ha)
75: Plant response rating, Barnyardgrass ([16]; 500 g ai/ha)
50: Galium plant response rating ([7]; postemergence) | Plant response rating, Blackgrass [10, 21]
15: Plant response rating, Rice (rice (Oryra sativa); 500 g ai/ha)
60: Plant response rating, Galium [7, 21]
40: Pigweed plant response rating (0 to 100 scale, 0 is no effect, 100 is complete control) ([4]; Preemergence) | Ragweed plant response rating (0 to 100 scale, 0 is no effect, 100 is complete control) ([5]; Preemergence) | Plant response rating, Ryegrass, Italian [14, 21] | Plant response rating, Wheat [15, 21]
80: Kochia plant response rating (0 to 100 scale, 0 is no effect, 100 is complete control) (Kochia (Kochia scoparia) [1]; Preemergence) | Foxtail, Giant plant response rating ([11]; postemergence) | Plant response rating, Waterhemp ([19]; 125 g ai/ha)
70: Plant response rating, Kochia (Kochia (Kochia scoparia) [1]; [20]) | Barnyardgrass plant response rating ([9]; postemergence) | Plant response rating, Corn (corn (Zea mays); [21])

O=C1NCC(c2cc(F)cc(C(F)(F)F)c2)C1C(=O)Nc1cccc(F)c1F (stereo not shown) [Compound 488]
0: Plant response rating, Sedge, Umbrella ([18]; 250 g ai/ha)
25: Plant response rating (scale of 0 to 100), Waterhemp ([19]; 31 g ai/ha, 0 is no effect, 100 is complete control)
90: Plant response rating, Barnyardgrass [2, 22] | Barnyardgrass plant response rating (0 to 100 scale, 0 is no effect, 100 is complete control) ([2]; Preemergence) | Plant response rating, Foxtail, Giant [3, 22] | Foxtail, Giant plant response rating (0 to 100 scale, 0 is no effect, 100 is complete control) ([3]; Preemergence) | Barnyardgrass plant response rating ([9]; postemergence) | Plant response rating, Barnyardgrass [9, 23] | Foxtail, Giant plant response rating ([11]; postemergence) | Plant response rating, Foxtail, Giant [11, 23] | Plant response rating, Ducksalad ([17]; 250 g ai/ha)
75: Plant response rating, Waterhemp ([19]; 125 g ai/ha)
80: Ragweed plant response rating (0 to 100 scale, 0 is no effect, 100 is complete control) ([5]; Preemergence) | Plant response rating, Corn (corn (Zea mays); [23]) | Plant response rating, Waterhemp ([19]; 250 g ai/ha)
65: Plant response rating, Barnyardgrass ([16]; 250 g ai/ha)
60: Plant response rating, Kochia (Kochia (Kochia scoparia) [8]; [23]) | Blackgrass plant response rating ([10]; postemergence) | Plant response rating, Ryegrass, Italian [14, 23] | Plant response rating, Wheat [15, 23]
30: Plant response rating, Ryegrass, Italian [6, 22] | Kochia plant response rating (Kochia (Kochia scoparia) [8]; postemergence) | Ryegrass, Italian plant response rating ([14]; postemergence) | Plant response rating, Rice (rice (Oryra sativa); 250 g ai/ha)
50: Plant response rating, Pigweed [4, 22] | Galium plant response rating ([7]; postemergence) | Plant response rating, Galium [7, 23] | Plant response rating, Pigweed [12, 23] | Wheat plant response rating ([15]; postemergence)
70: Plant response rating, Kochia (Kochia (Kochia scoparia) [1]; [22]) | Kochia plant response rating (0 to 100 scale, 0 is no effect, 100 is complete control) (Kochia (Kochia scoparia) [1]; Preemergence) | Pigweed plant response rating (0 to 100 scale, 0 is no effect, 100 is complete control) ([4]; Preemergence) | Plant response rating, Ragweed [5, 22] | Ryegrass, Italian plant response rating (0 to 100 scale, 0 is no effect, 100 is complete control) ([6]; Preemergence) | Plant response rating, Blackgrass [10, 23] | Corn plant response rating (corn (Zea mays); postemergence)
20: Ragweed plant response rating ([13]; postemergence) | Plant response rating, Ragweed [13, 23]
40: Pigweed plant response rating ([12]; postemergence) | Plant response rating, Waterhemp ([19]; 62 g ai/ha)
